According to US9073916B2, “Prodrug forms of kinase inhibitors and their use in therapy” (AUCKLAND UNISERVICES LIMITED, priority 2009, dated 2015):
Like-named read-outs stand apart in the source and are kept apart here.

Key:
[1] = Steady state radiolytic reduction by the CO2.− radical with HPLC-MS; format: physicochemical; details: for Detection of MNA (methyl nitroaromatic) / release of effector following 1-electron reduction: HPLC-MS; for release of effector following 1-electron reduction: steady state radiolysis
erbB2 = erbB2 (Homo sapiens, UniProt P04626); assay: Isolated enzyme inhibition (Invitrogen Z′-LYTE kinase assay); format: biochemical; details: 10 μM ATP, duplicate
Chain of erbB2 (P04626 23-1255): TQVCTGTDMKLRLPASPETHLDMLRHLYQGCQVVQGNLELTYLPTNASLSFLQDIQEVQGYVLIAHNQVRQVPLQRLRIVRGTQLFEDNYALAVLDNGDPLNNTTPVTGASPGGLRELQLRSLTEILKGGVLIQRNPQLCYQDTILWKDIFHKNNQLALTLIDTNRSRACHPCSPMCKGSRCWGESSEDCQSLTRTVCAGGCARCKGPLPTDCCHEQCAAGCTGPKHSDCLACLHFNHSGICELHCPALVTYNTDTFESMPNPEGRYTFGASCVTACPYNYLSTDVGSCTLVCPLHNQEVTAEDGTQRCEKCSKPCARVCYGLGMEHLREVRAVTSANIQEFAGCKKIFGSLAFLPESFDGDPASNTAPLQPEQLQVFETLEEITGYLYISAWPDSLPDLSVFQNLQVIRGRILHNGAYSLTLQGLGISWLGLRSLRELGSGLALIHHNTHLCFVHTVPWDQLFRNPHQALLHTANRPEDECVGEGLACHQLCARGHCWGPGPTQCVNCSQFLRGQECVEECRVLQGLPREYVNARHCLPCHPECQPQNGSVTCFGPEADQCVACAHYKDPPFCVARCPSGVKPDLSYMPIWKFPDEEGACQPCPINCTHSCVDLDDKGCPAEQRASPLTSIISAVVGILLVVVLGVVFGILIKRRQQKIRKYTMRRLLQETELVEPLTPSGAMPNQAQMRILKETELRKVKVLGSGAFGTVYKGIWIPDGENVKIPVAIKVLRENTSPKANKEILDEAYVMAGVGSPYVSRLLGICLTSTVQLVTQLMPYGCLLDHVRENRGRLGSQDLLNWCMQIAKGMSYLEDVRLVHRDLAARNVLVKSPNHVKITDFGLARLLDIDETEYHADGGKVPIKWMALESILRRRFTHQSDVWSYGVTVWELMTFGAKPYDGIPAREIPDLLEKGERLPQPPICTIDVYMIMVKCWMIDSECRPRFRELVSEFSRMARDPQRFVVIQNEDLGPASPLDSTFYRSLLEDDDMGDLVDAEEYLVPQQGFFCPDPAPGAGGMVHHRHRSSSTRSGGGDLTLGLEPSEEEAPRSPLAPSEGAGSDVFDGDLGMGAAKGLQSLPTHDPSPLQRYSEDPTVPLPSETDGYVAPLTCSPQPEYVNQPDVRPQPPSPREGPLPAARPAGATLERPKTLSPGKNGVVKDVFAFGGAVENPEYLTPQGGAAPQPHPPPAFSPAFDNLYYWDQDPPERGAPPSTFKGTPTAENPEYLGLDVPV
Description: (§1) The compounds of Table 1 were tested for their ability to inhibit erbB1, erbB1^T790M, erbB2 and erbB4 in an isolated enzyme assay. This assay utilises synthetic FRET-capable peptide substrates. Phosphorylation of these substrates protects them from cleavage by a development reagent, leaving their FRET-capabilities intact. […] As a further consideration, for compounds capable of irreversible inhibition of an enzyme, the IC50 reflects both reversible and irreversible binding to the enzyme.

SKBR3 cells = assay: Cellular growth inhibition (sulforhodamine B); format: cell-based, Human; details: Table 3; for IC50: Homo sapiens, SK-BR-3
Description: (§3) Human A431, BT474, SKBR3, SKOV3, SW620, H1975 and HT29 carcinoma cells in log phase exponential growth in alpha minimal essential media (αMEM) containing 5% fetal bovine serum (FBS), were harvested by trypsinisation (1× trypsin/EDTA, Gibco Brl), counted, and seeded into 96 well plates (Nunc) at cell densities ranging from 800-1500 cells/well. Half of the cell samples were seeded into plates that were pre-equilibrated and held in an anoxic environment (90% N2, 5% H2, 5% CO2, 37° Q Anaerobic chamber, Coy Laboratory Products). […] At the end of this period the anoxic plates were recovered from the anaerobic camber and held under normoxia in a standard CO2 incubator (37° C.) for 20 hours. All plates were washed free of compound and cells were allowed to proliferate for a further 4 days in αMEM containing 5% FBS+antibiotics. Cells were fixed in trichloroacteic acid (30 min), washed and stained with sulforhodamine B (SRB, 60 min) prior to washing in acidified water. SRB was solubilised and absorption read at 450 nm to calculate cell densities. Inhibition of proliferation was calculated relative to untreated control wells.

erbB1 [2] = target: T1, erbB1 (Homo sapiens, UniProt P00533); assay: Isolated enzyme inhibition (Invitrogen Z′-LYTE kinase assay); format: biochemical; details: 10 μM ATP, duplicate
T1 sequence (P00533 25-1210): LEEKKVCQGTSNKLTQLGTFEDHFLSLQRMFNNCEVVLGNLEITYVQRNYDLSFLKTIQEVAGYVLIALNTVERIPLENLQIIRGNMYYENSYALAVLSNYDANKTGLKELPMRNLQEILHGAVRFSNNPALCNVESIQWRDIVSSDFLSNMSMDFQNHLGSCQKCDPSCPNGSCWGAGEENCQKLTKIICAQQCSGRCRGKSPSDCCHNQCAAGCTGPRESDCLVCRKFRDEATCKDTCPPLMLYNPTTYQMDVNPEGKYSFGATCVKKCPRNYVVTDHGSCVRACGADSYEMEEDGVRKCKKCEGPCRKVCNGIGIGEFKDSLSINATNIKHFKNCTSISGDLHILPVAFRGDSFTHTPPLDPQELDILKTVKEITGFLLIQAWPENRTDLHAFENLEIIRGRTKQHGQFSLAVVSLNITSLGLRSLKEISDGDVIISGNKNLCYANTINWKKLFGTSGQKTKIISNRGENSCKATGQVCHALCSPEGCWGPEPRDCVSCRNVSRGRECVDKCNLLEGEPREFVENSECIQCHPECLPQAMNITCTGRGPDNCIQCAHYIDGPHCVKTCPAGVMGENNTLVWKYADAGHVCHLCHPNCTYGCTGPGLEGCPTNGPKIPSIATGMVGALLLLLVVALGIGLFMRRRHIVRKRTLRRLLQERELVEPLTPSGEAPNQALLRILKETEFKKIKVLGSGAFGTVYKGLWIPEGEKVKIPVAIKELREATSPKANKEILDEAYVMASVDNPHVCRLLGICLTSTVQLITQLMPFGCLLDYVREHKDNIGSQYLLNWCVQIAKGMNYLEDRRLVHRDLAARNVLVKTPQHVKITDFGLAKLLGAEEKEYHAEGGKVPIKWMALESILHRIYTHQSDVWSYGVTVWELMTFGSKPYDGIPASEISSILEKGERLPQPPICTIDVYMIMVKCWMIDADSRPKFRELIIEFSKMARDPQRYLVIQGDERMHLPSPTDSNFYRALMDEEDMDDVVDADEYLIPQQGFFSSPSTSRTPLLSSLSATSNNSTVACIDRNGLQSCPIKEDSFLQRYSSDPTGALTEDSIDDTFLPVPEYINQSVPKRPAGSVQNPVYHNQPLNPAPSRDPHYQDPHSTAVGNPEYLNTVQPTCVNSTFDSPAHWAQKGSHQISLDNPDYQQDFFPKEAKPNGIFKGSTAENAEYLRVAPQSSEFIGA

A431 cells = assay: Cellular growth inhibition (sulforhodamine B); details: for IC50: Homo sapiens; for A431 Deact. (fold reduction in oxic growth inhibition relative to parent kinase inhibitor) / A431 HCR (Hypoxic Cytotoxicity Ratio): Table 3
Description: as §3
Human A431, H1975 and SKOV3 carcinoma cells in log phase exponential growth in alpha minimal essential media (αMEM) containing 5% fetal bovine serum (FBS), were harvested by trypsinisation (1× trypsin/EDTA, Gibco Brl), counted, and seeded into 96 well plates (Nunc) at cell densities ranging from 800-1500 cells/well. Half of the cell samples were seeded into plates that were pre-equilibrated and held in an anoxic environment (90% N2, 5% H2, 5% CO2, 37° C.; Anaerobic chamber, Coy Laboratory Products). […] At the end of this period the anoxic plates were recovered from the anaerobic camber and held under normoxia in a standard CO2 incubator (37° C.) for 20 hours. All plates were washed free of compound and cells were allowed to proliferate for a further 4 days in αMEM containing 5% FBS+antibiotics. Cells were fixed in trichloroacteic acid (30 min), washed and stained with sulforhodamine B (SRB, 60 min) prior to washing in acidified water. SRB was solubilised and absorption read at 450 nm to calculate cell densities. Inhibition of proliferation was calculated relative to untreated control wells.

erbB1 [3] = target: T1, erbB1; assay: Inhibition of erbB1 autophosphorylation in EGF-stimulated intact A431 cells (Western blot); details: for Deact. (fold reduction in cellular erbB1 inhibition relative to the parent kinase inhibitor): Table 2
SW620 cells = assay: Cellular growth inhibition (sulforhodamine B); format: cell-based, Human; details: Table 3; for IC50: Homo sapiens, SW-620
Description: as §3

erbB1 [4] = target: T1, erbB1; assay: Cellular erbB1 inhibition under oxic and hypoxic conditions in A431 cells; format: cell-based; details: 1 μM, 4 hour exposure oxic or hypoxic, washed, EGF stimulated
Description: Human A431 epidermoid carcinoma cells were seeded at 400,000 cells/well in a 6 well plate in alpha minimal essential media (αMEM) containing 10% fetal bovine serum, 10 mM D-Glucose and 0.2 mM 2′-deoxycytidine. A431 cells were allowed to attach for 90 minutes under oxic or anoxic conditions, then exposed to test compounds at a concentration of 1 uM for a further 4 hours under oxic or anoxic conditions. The cells were then washed free of test compounds three times using serum free media and then returned to the incubator under oxic conditions overnight. The cells were then stimulated with 100 ng/mL EGF for 15 minutes before the medium was aspirated and the cells were washed with ice-cold PBS.

[5] = Pulse radiolysis (E(1) and fragmentation rate); format: physicochemical; details: determined against methylviologen
Description: (§2) Pulse radiolysis was used to monitor the 1-electron reduction and stability of the compounds in real time. A linear accelerator delivering short pulses of high energy electrons (2-3 Gy in 200 ns of 4 MeV) equipped with a fast spectophotometric detection system was used. (Anderson et al, J. Phys. Chem. A, 101, 9704-9709, 1997). […] The rate of fragmentation was determined by analysing kinetic transients at wavelengths corresponding to the formation of the benzyl-type radical of the trigger moiety. (Bays et al, J. Am. Chem. Soc., 105, 320-324, 1983; Anderson et al, J. Phys. Chem. A, 101, 9704-9709, 1997).
The pulse radiolysis method, for example, measures the equilibrium constant between the radical anions of the prodrugs, formed upon their 1-electron reduction, and reference standards such as viologen and quinone compounds, from which data the E(1) values of the compounds can be calculated. (Meisel and Czapski. J. Phys. Chem., 1975, 79, 1503-1509.) The E(1) values of prodrugs 17-22, 140-145 were measured by the pulse radiolysis method and determined to range between −0.493V and −0.388V (Table 4).
The rate constants for fragmentation, kfrag, of the 1-electron reduced prodrugs can be measured using pulse radiolysis to observe the time-resolved formation of the absorption spectrum of the benzyl-type radical produced upon fragmentation of the radical anion. (Anderson et al, J. Phys. Chem. A, 1997, 101, 9704-9709.) The kfrag values of prodrugs 19, 20, 140, 141 and 143-145 were measured by pulse radiolysis and are presented in Table 4.
as §2, with “one-electron” for “1-electron”, “prodrug 42” for “the compounds”, “used.” for “used. (Anderson et al, J. Phys. Chem. A, 101, 9704-9709, 1997).”, “1997.)” for “1997).”

erbB4 = erbB4 (Homo sapiens, UniProt Q15303); assay: Isolated enzyme inhibition (Invitrogen Z′-LYTE kinase assay); format: biochemical; details: 10 μM ATP, duplicate
Chain of erbB4 (Q15303 26-1308): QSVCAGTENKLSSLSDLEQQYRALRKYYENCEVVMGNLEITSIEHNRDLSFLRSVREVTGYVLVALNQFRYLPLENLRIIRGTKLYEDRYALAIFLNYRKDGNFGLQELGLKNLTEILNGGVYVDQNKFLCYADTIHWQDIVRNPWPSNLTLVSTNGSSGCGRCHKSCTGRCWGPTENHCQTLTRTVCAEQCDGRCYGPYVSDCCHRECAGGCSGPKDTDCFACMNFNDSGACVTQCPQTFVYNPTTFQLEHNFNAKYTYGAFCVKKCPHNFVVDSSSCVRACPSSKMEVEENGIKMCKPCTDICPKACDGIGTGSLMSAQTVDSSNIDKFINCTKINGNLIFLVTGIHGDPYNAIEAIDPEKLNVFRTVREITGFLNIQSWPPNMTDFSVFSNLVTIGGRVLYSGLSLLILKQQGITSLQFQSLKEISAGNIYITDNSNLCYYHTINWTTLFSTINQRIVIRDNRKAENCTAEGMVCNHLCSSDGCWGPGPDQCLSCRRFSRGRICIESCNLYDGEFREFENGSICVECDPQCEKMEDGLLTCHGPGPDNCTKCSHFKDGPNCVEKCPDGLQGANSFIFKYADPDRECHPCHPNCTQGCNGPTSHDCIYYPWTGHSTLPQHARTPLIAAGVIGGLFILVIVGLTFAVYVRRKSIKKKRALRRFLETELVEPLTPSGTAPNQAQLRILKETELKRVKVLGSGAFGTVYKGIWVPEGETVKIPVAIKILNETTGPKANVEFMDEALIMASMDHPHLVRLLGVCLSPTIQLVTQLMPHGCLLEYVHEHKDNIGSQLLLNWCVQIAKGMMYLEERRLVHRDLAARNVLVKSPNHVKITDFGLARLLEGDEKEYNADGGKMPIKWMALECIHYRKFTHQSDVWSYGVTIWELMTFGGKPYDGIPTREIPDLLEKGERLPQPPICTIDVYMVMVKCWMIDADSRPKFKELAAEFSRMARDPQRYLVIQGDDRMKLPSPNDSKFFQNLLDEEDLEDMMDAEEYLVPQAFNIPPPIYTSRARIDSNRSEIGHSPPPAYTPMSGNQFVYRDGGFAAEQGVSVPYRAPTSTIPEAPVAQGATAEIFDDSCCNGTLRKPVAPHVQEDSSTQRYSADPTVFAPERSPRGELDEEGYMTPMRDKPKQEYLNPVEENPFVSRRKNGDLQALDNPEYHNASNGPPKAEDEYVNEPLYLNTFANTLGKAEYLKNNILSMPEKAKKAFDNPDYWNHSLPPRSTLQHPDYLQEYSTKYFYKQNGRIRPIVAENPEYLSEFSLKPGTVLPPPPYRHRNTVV
Description: as §1

erbB1^T790M = erbB1^T790M (Homo sapiens, UniProt P00533, T790M); assay: as above; format: biochemical; details: 10 μM ATP, duplicate
Chain of erbB1^T790M (P00533 25-1210 T790M): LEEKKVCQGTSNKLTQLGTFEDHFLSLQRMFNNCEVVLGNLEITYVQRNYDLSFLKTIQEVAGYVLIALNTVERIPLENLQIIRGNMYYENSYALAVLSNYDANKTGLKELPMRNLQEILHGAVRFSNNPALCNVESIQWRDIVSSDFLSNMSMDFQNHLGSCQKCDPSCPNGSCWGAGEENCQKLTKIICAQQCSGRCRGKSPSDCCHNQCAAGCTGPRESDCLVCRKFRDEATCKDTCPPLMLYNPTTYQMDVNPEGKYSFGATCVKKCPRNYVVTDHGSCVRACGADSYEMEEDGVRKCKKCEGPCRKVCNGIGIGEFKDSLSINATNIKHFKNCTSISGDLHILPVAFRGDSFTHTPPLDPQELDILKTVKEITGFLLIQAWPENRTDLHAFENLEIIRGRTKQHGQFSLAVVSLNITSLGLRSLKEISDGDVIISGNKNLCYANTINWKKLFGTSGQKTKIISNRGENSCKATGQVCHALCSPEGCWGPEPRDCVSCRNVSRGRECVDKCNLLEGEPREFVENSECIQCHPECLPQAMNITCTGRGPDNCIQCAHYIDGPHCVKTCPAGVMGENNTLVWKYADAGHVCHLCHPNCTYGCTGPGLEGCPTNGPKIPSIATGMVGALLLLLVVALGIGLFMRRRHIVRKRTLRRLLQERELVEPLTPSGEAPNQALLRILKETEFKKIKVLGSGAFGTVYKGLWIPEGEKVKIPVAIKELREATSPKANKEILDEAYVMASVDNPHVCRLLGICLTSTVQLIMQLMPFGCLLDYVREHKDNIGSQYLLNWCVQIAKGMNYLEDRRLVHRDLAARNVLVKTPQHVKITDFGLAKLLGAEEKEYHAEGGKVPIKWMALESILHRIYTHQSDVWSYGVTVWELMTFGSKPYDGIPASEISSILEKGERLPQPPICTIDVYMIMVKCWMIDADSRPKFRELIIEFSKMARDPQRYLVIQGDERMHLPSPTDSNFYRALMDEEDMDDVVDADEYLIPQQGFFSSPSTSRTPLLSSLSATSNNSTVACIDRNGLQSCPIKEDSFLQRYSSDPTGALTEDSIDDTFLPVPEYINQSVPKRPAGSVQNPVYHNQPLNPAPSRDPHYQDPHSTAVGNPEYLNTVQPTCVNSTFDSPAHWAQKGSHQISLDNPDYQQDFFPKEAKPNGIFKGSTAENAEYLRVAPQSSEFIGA

SKOV3 cells = assay: Cellular growth inhibition (sulforhodamine B); format: cell-based, Human; details: Table 9; for IC50: Homo sapiens, SK-OV-3
H1975 cells = assay: Cellular growth inhibition (sulforhodamine B); format: cell-based, Human; details: Table 9; for IC50: Homo sapiens, NCI-H1975
H1975 xenografts = assay: In vivo efficacy in H1975 xenografts; design: species or system mice; details: H1975 xenografts, q3dx4 at respective MTD, IP
Description: Specific pathogen-free homozygous female NIH-III nude mice (Charles River Laboratories, Wilmington, Mass.) were inoculated subcutaneously with a single cell suspension of H1975 cells (5×10^6 cells/100 μL; right flank). When H1975 tumour xenografts were established (typically 8-12 days) mice were randomized to treatment groups. All compounds were prepared in lactate buffer (pH4). Mice were dosed by intraperitoneal injection (0.01-0.03 ml/g) using the stated schedules and dose levels. For growth delay experiments mice were randomized to treatment and tumor volume [π(length×width^2)/6] and body weight were measured daily following treatment. […] Differences in RTV^4 were tested for statistical difference by Mann Whitney U test using SigmaStat v3.5.

[6] = Chemical stability by HPLC; details: HPLC after 24 h at 37° C.
[7] = HPLC-MS at 0.95 reducing equivalents
[8] = 24 hour exposure entirely oxic, read-out: Cellular Growth Inhibition IC50 SKBR3 Oxic
[9] = first 4 hours anoxic, read-out: Cellular Growth Inhibition IC50 SKBR3 Anoxic
[10] = A-431, 24 h, read-out: Cellular Growth Inhibition IC50 A431 Oxic
[11] = A-431, read-out: Cellular Growth Inhibition IC50 A431 Anoxic
[12] = 24 hour exposure entirely oxic, read-out: Cellular Growth Inhibition IC50 SW620 Oxic
[13] = first 4 hours anoxic, read-out: Cellular Growth Inhibition IC50 SW620 Anoxic

SMILES | Detection of MNA (methyl nitroaromatic) [1] | % Loss of prodrug [1, 7] [%] | release of effector following 1-electron reduction [1] | IC50 (erbB2) [nM] | IC50 (SKBR3 cells; [8]) [nM] | IC50 (SKBR3 cells; [9]) [nM] | SKBR3 Deact. (SKBR3 cells) [fold] | SKBR3 HCR (SKBR3 cells) [fold] | IC50 (erbB1 [2]) [nM] | IC50 (A431 cells; [10]) [nM] | IC50 (A431 cells; [11]) [nM] | A431 Deact. (fold reduction in oxic growth inhibition relative to parent kinase inhibitor) (A431 cells) [fold] | A431 HCR (Hypoxic Cytotoxicity Ratio) (A431 cells) [fold] | IC50 (erbB1 [3]) [nM] | IC50 (SW620 cells; [12]) [µM] | IC50 (SW620 cells; [13]) [µM] | SW620 Deact. (SW620 cells) [fold] | SW620 HCR (SW620 cells) [fold] | hypoxia-selective inhibition of p-erbB1 (erbB1 [4]) | E (1)/V (one-electron reduction potential) [5] [V] | further results
Cn1ncc([N+](=O)[O-])c1C[N+](C)(C)C/C=C/C(=O)Nc1ccc2ncnc(Nc3cccc(Br)c3)c2c1 [Compound 22, (2E)-4-{[4-(3-bromoanilino)-6-quinazolinyl]amino}-N,N-dimethyl-N-[(1-methyl-4-nitro-1H-pyrazol-5-yl)methyl]-4-oxo-2-buten-1-ammonium bromide] | No | 35 | did not release their respective effector compounds | 135 | 11000 | 1640 | 136 | 6.7 | 0.46 | 5860 | 564 | 147 | 10.4 | 1390 | 281 | 123 | 82 | 2.3 | no apparent hypoxia-selective inhibition | −0.449 | Effector release/Prodrug loss ([1]; 0.95 reducing equivalents): 0.49; % Release of effector [1, 7]: 17%; Deact. (fold reduction in cellular erbB1 inhibition relative to the parent kinase inhibitor) (erbB1 [3]; A431 cells): 151 fold
C[N+](C)(C/C=C/C(=O)Nc1ccc2ncnc(Nc3cccc(Br)c3)c2c1)Cc1ccc([N+](=O)[O-])cc1 [Compound 17, (2E)-4-{[4-(3-bromoanilino)-6-quinazolinyl]amino}-N,N-dimethyl-N-(4-nitrobenzyl)-4-oxo-2-buten-1-ammonium bromide] | No | 33 | did not release their respective effector compounds | 110 | 1520 | 1840 | 19 | 0.8 | 0.56 | 462 | 444 | 12 | 1.0 |  | 112 | 112 | 33 | 1.0 | no apparent hypoxia-selective inhibition | −0.408 | 
Cn1cnc([N+](=O)[O-])c1C[N+](C)(C)CCCC(=O)Nc1ccc2ncnc(Nc3cccc(Br)c3)c2c1 [Compound 27, 4-{([4-(3-bromoanilino)-6-quinazolinyl]amino}-N,N-dimethyl-N-[(1-methyl-4-nitro-1H-imidazol-5-yl)methyl]-4-oxo-1-butanaminium bromide] |  |  |  | 191 | 507000 | 74300 | 159 | 7.6 | 0.64 | 255000 | 76100 | 203 | 3.4 | 3600 | 684 | 585 | 37 | 1.2 |  |  | IC50 (erbB4): 174 nM; IC50 (erbB1^T790M): 798 nM; Deact. (fold reduction in cellular erbB1 inhibition relative to the parent kinase inhibitor) (erbB1 [3]; A431 cells): 201 fold
C#Cc1cccc(Nc2ncnc3cnc(NC(=O)/C=C/C[N+](C)(C)Cc4c([N+](=O)[O-])ncn4C)cc23)c1 [Compound 58, (2E)-4-{[4-(3-ethynylanilino)pyrido[3,4-d]pyrimidin-6-yl]amino}-N,N-dimethyl-N-[(1-methyl-4-nitro-1H-imidazol-5-yl)methyl]-4-oxo-2-buten-1-ammonium bromide] |  |  |  |  |  |  |  |  |  | 2000 |  |  |  | 513 |  |  |  |  |  |  | solubility (physchem; aqueous buffer): > 1280 µM; solubility (physchem; water): > 1280 µM; IC50 (SKOV3 cells; 24 hour exposure oxic, read-out: Cellular Growth Inhibition IC50 SKOV3 Oxic): 73.1 µM; IC50 (SKOV3 cells; first 4 hours anoxic, read-out: Cellular Growth Inhibition IC50 SKOV3 Anoxic): 2.51 µM; SKOV3 Deact. (SKOV3 cells): 133 fold; SKOV3 HCR (SKOV3 cells): 38.5 fold; IC50 (A431 cells; A-431, 4 h, read-out: Cellular Growth Inhibition IC50 A431 Anoxic): 35 nM; A431 Deact. (A431 cells; Table 9): 74 fold; A431 HCR (A431 cells; Table 9): 77.9 fold; IC50 (H1975 cells; 24 hour exposure oxic, read-out: Cellular Growth Inhibition IC50 H1975 Oxic): 98.9 µM; IC50 (H1975 cells; first 4 hours anoxic, read-out: Cellular Growth Inhibition IC50 H1975 Anoxic): 3.81 µM; H1975 Deact. (H1975 cells): 86 fold; H1975 HCR (H1975 cells): 77.7 fold; Deact. erbB1 (fold reduction in cellular inhibition relative to the parent kinase inhibitor) (erbB1 [3]; Table 8, A431 cells): 64 fold; tumour growth inhibition (TGI) (H1975 xenografts): 171%; Stability PBS (percentage parent remaining) [6]: 78%; Stability Water (percentage parent remaining) [6]: 98%; Stability α-MEM + FCS (5%) (percentage parent remaining) [6]: 61%
C[N+](C)(C/C=C/C(=O)Nc1ccc2ncnc(Nc3cccc(Br)c3)c2c1)Cc1ccccc1[N+](=O)[O-] [Compound 18, (2E)-4-{[4-(3-bromoanilino)-6-quinazolinyl]amino}-N,N-dimethyl-N-(2-nitrobenzyl)-4-oxo-2-buten-1-ammonium bromide] | No | 33 | did not release their respective effector compounds | 123 | 3750 | 1290 | 44 | 2.8 | 0.2 | 2340 | 401 | 59 | 5.8 |  | 92.2 | 79.8 | 27 | 1.2 | no apparent hypoxia-selective inhibition | −0.388 | 
